Source: ChEMBL document CHEMBL4619713, “Novel PDE5 inhibitors derived from rutaecarpine for the treatment of Alzheimer's disease” (Bioorg Med Chem Lett, 2020)
Calls of active or inactive are those of the source. The calls are words filed in the database; no cut-off is given here.

Assays:
[1] = molecular target: cGMP-specific 3',5'-cyclic phosphodiesterase (Homo sapiens, UniProt O76074); test: Inhibition of PDE5A (unknown origin)
Homo sapiens [2] = species on record: Homo sapiens; test: Selectivity index, ratio of IC50 for PDE6 (unknown origin) to IC50 for PDE5A (unknown origin)
[3] = molecular target: cGMP-dependent 3',5'-cyclic phosphodiesterase (Homo sapiens, UniProt O00408); test: Inhibition of PDE2 (unknown origin)
Phosphodiesterase 4 = Phosphodiesterase 4 (Homo sapiens, UniProt P27815+Q08499+Q07343+Q08493); test: Inhibition of PDE4 (unknown origin); type: protein assay
Phosphodiesterase 6 = test: Inhibition of PDE6 (unknown origin); type: protein assay, Homo sapiens
[4] = molecular target: High affinity cGMP-specific 3',5'-cyclic phosphodiesterase 9A (Homo sapiens, UniProt O76083); test: Inhibition of PDE9 (unknown origin)
[5] = molecular target: cAMP and cAMP-inhibited cGMP 3',5'-cyclic phosphodiesterase 10A (Homo sapiens, UniProt Q9Y233); test: Inhibition of PDE10 (unknown origin)
Homo sapiens [6] = species on record: Homo sapiens; test: Selectivity index, ratio of IC50 for PDE2 (unknown origin) to IC50 for PDE5A (unknown origin)
Homo sapiens [7] = species on record: Homo sapiens; test: Selectivity index, ratio of IC50 for PDE4 (unknown origin) to IC50 for PDE5A (unknown origin)
Homo sapiens [8] = species on record: Homo sapiens; test: Selectivity index, ratio of IC50 for PDE9 (unknown origin) to IC50 for PDE5A (unknown origin)
Mus musculus [9] = test: Cognitive enhancing effect in mouse mouse model of scopolamine-induced cognition deficit assessed as reduction in escape latency at 5 and 10 mg/kg by water maze test; type: functional, organism-based
Mus musculus [10] = test: Cognitive enhancing effect in mouse mouse model of scopolamine-induced cognition deficit assessed as decrease in frequent error at 5 and 10 mg/kg by water maze test; type: functional, organism-based

cGMP-dependent 3',5'-cyclic phosphodiesterase, sequence (O00408 whole entry): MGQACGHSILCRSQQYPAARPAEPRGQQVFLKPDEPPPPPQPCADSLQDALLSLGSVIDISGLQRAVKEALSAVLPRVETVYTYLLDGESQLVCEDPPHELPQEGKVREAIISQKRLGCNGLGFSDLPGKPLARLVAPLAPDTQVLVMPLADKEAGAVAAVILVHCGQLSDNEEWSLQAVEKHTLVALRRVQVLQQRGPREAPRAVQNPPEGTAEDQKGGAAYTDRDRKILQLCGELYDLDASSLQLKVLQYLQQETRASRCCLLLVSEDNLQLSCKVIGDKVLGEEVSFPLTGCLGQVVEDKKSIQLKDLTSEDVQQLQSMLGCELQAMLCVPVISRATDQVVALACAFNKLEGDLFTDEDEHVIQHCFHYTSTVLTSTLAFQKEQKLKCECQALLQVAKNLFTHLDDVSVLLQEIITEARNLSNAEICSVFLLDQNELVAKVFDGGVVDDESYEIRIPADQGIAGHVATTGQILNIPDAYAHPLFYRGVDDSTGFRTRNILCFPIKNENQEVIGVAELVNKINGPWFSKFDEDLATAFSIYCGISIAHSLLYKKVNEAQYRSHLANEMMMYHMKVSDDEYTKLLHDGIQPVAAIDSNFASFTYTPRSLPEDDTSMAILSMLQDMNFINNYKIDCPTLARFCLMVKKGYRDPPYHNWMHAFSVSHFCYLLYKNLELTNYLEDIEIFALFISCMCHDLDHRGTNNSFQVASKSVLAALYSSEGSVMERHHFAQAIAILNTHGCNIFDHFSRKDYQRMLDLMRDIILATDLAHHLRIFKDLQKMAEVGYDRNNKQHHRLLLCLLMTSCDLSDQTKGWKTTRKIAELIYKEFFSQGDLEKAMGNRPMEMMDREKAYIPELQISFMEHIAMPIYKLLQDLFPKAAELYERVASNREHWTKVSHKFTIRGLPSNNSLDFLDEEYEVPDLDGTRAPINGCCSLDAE
cAMP and cAMP-inhibited cGMP 3',5'-cyclic phosphodiesterase 10A, sequence (Q9Y233 whole entry): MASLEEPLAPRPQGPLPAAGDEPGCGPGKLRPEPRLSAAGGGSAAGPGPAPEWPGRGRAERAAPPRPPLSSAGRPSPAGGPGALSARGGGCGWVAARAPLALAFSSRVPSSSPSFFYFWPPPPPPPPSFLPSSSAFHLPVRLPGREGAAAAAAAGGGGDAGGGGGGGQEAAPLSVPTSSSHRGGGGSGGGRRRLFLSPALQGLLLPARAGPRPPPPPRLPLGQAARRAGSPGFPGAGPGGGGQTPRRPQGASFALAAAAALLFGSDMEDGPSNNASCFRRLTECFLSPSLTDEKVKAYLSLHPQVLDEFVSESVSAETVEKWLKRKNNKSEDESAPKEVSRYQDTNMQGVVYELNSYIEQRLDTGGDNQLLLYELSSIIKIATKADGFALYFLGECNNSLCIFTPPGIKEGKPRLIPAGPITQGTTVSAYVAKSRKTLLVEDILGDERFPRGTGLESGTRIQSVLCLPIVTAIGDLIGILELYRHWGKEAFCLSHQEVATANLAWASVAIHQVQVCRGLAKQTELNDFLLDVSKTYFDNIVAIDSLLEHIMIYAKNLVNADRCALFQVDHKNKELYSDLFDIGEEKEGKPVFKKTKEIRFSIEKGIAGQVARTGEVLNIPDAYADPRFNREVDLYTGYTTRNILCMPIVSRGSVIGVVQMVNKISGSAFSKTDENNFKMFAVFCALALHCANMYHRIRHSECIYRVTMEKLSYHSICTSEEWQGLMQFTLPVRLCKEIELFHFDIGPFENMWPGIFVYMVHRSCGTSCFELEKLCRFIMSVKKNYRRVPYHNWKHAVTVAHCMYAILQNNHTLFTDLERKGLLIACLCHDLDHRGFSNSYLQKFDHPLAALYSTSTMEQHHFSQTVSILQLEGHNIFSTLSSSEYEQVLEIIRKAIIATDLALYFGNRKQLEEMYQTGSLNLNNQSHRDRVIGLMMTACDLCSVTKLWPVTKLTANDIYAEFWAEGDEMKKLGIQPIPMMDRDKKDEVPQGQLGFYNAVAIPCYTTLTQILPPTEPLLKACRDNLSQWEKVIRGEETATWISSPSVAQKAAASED
High affinity cGMP-specific 3',5'-cyclic phosphodiesterase 9A, sequence (O76083 whole entry): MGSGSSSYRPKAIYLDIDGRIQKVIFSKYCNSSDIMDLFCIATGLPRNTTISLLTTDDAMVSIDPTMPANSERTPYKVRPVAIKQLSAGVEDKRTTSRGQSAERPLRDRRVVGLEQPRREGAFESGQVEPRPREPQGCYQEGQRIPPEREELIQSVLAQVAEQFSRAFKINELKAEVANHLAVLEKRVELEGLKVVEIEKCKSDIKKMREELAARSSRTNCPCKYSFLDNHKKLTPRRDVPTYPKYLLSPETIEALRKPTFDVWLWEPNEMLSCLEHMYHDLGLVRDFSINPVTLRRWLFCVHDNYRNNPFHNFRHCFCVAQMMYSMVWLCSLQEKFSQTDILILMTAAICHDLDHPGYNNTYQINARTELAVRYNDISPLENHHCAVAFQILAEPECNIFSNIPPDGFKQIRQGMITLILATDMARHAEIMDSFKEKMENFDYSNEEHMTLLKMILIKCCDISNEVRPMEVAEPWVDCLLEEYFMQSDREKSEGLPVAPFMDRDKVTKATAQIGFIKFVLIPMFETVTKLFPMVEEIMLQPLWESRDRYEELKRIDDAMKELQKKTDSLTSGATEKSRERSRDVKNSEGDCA

| SMILES | IC50 [1] | other results |
| --- | --- | --- |
| COc1cc(OC)c2c3c(n(CCC(C)C)c2c1)-c1nc2ccccc2c(=O)n1CC3 | 18200 nM | – |
| COc1ccc2c3c([nH]c2c1)-c1nc2ccccc2c(=O)n1CC3 | 22100 nM | – |
| CCn1c2c(c3c(OC)cc(OC)cc31)CCn1c-2nc2ccccc2c1=O | 47300 nM | – |
| CCCn1c2c(c3c(OC)cc(OC)cc31)CCn1c-2nc2ccccc2c1=O | 19800 nM | – |
| COc1cc(OC)c2c3c([nH]c2c1)-c1nc2ccccc2c(=O)n1CC3 | 45600 nM | – |
| COc1ccc2c3c(n(CCC(C)C)c2c1)-c1nc2ccccc2c(=O)n1CC3 | 6170 nM | – |
| CCCCn1c2c(c3c(OC)cc(OC)cc31)CCn1c-2nc2ccccc2c1=O | 20600 nM | – |
| CCCCn1c2c(c3ccc(OC)cc31)CCn1c-2nc2ccccc2c1=O | 9190 nM | – |
| CCCc1nn(C)c2c(=O)[nH]c(-c3cc(S(=O)(=O)N4CCN(C)CC4)ccc3OCC)nc12 | – | Ratio IC50 (Homo sapiens [2]): 10 |
| O=c1c2ccccc2nc2n1CCc1c-2[nH]c2cc(O)ccc12 | 1360 nM | – |
| CCCn1c2c(c3ccccc31)CCn1c-2nc2ccccc2c1=O | 1700 nM | – |
| CCn1c2c(c3ccc(OC)cc31)CCn1c-2nc2ccccc2c1=O | 11600 nM | – |
| CCCn1c2c(c3ccc(O)cc31)CCn1c-2nc2ccccc2c1=O | 1330 nM | – |
| COc1cc2c(cc1OC)C(=O)C(CC1CCN(Cc3ccccc3)CC1)C2 (stereo not drawn) [DONEPEZIL] | > 100000 nM | – |
| CCCn1c2c(c3ccc(OC)cc31)CCn1c-2nc2ccccc2c1=O | 12100 nM | – |

Second part, led by results:

| IC50 [1] | SMILES | other results |
| --- | --- | --- |
| 630 nM | CCCCn1c2c(c3ccc(O)cc31)CCn1c-2nc2ccccc2c1=O | – |
| 610 nM | CC(C)CCn1c2c(c3ccccc31)CCn1c-2nc2ccccc2c1=O | – |
| 1120 nM | CCCCn1c2c(c3ccccc31)CCn1c-2nc2ccccc2c1=O | – |
| 970 nM | CCn1c2c(c3c(O)cc(O)cc31)CCn1c-2nc2ccccc2c1=O | – |
| 1230 nM | O=c1c2ccccc2nc2n1CCc1c-2[nH]c2ccccc12 [RUTAECARPINE] | – |
| 970 nM | CCn1c2c(c3ccc(O)cc31)CCn1c-2nc2ccccc2c1=O | – |
| 260 nM | CCCCn1c2c(c3c(O)cc(O)cc31)CCn1c-2nc2ccccc2c1=O | – |
| 86 nM | CC(C)CCn1c2c(c3c(O)cc(O)cc31)CCn1c-2nc2ccccc2c1=O | IC50 [3]: > 500000 nM; IC50 (Phosphodiesterase 4): > 500000 nM; IC50 (Phosphodiesterase 6): 43800 nM; IC50 [4]: > 500000 nM; IC50 [5]: 32100 nM; Ratio IC50 (Homo sapiens [6]): > 5000; Ratio IC50 (Homo sapiens [7]): > 5000; Ratio IC50 (Homo sapiens [8]): > 5000; Ratio IC50 (Homo sapiens [2]): > 500; Activity (Mus musculus [9]): Active; Activity (Mus musculus [10]): Active |
| 110 nM | CC(C)CCn1c2c(c3ccc(O)cc31)CCn1c-2nc2ccccc2c1=O | – |
| 1120 nM | CCn1c2c(c3ccccc31)CCn1c-2nc2ccccc2c1=O | – |
| 330 nM | CCCn1c2c(c3c(O)cc(O)cc31)CCn1c-2nc2ccccc2c1=O | – |
| 790 nM | O=c1c2ccccc2nc2n1CCc1c-2[nH]c2cc(O)cc(O)c12 | – |
